What follows are compounds tested against T1, Human Factor XIIa (Homo sapiens, UniProt P00748) (assay: Determination of Factor XIIa inhibitory activity in vitro (fluorogenic substrate H-DPro-Phe-Arg-AFC)). Details: Human Factor XIIa (Enzyme Research Laboratories), 25° C., read-out: Human FXIIa IC50.
T1 construct: purchased Enzyme Research Laboratories
T1 sequence (P00748 373-615 limits assumed): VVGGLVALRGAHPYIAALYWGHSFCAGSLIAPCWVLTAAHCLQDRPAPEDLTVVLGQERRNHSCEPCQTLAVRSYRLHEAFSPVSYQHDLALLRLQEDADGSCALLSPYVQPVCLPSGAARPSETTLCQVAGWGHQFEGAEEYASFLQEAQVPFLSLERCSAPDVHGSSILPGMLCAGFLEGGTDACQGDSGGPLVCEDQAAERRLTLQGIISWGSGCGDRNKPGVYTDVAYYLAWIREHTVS
T1 sequence (P00748 20-372 partner limits assumed): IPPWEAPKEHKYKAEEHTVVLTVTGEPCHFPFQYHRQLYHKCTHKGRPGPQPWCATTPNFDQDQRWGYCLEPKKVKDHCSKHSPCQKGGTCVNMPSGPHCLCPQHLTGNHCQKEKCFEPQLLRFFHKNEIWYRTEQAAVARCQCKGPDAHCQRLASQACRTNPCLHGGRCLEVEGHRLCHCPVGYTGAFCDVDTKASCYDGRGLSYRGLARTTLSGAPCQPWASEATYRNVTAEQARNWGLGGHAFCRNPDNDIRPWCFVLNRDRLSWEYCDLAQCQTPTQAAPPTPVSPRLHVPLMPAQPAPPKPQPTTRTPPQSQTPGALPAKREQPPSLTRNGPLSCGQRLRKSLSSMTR
Type: biochemical
Experimental: Determination of the % Inhibition for FXIIa
Factor XIIa inhibitory activity in vitro was determined using standard published methods (see e.g. Shori et al., Biochem. Pharmacol., 1992, 43, 1209; Baeriswyl et al., ACS Chem. Biol., 2015, 10 (8) 1861; Bouckaert et al., European Journal of Medicinal Chemistry 110 (2016) 181). Human Factor XIIa (Enzyme Research Laboratories) was incubated at 25° C. with the fluorogenic substrate H-DPro-Phe-Arg-AFC and various concentrations of the test compound. Residual enzyme activity (initial rate of reaction) was determined by measuring the […] and the IC50 value for the test compound was determined.

Compound | IC50
CC(C)N(CCNc1ncc(C(=O)NCc2ccc3c(N)nccc3c2)cc1Cl)C(C)C [Example 11.20, N-((1-aminoisoquinolin-6-yl)methyl)-5-chloro-6-((2-(diisopropylamino)ethyl)amino)nicotinamide] | 1 to 3 µM
CN(C)CCCNc1ncc(C(=O)NCc2ccc3c(N)nccc3c2)cc1Cl [Example 11.21] | 3 to 10 µM
CC(C)N1CCN(CCCNc2ncc(C(=O)NCc3ccc4c(N)nccc4c3)cc2Cl)CC1 [Example 11.22] | 3 to 10 µM
CN(C)CCOc1ccc(CNc2ncc(C(=O)NCc3ccc4c(N)nccc4c3)cc2Cl)cc1 [Example 11.23, N-((1-aminoisoquinolin-6-yl)methyl)-5-chloro-6-((4-(2-(dimethylamino)ethoxy)benzyl)amino)nicotinamide] | 3 to 10 µM
CN1CCN(CCCNc2ncc(C(=O)NCc3ccc4c(N)nccc4c3)cc2Cl)CC1 [Example 11.24] | 3 to 10 µM
CN(C)c1ccc(Nc2ncc(C(=O)NCc3ccc4c(N)nccc4c3)cc2Cl)cc1 [Example 11.26] | 10 to 40 µM
Nc1nccc2cc(CNC(=O)c3cnc(Nc4ccc(N5CCOCC5)cc4)c(Cl)c3)ccc12 [Example 11.27] | 10 to 40 µM
CC(C)NC(=O)N(C)c1ccc(Oc2ncc(C(=O)NCc3ccc4c(N)nccc4c3)cc2Cl)cc1 [Example 13.16] | 3 to 10 µM
Nc1nccc2cc(CNC(=O)c3cnc(Oc4ccc(N5CCNCC5)cc4)c(Cl)c3)ccc12 [Example 13.24, N-((1-aminoisoquinolin-6-yl)methyl)-5-chloro-6-(4-(piperazin-1-yl)phenoxy)nicotinamide] | 1 to 3 µM
CN1CCCN(c2ncc(Cl)cc2C(=O)NCc2ccc3c(N)nccc3c2)CC1 [Example 16.01] | 10 to 40 µM
Nc1nccc2cc(CNC(=O)c3cc(Cl)cnc3N3CC(O)C3)ccc12 [Example 16.02] | 10 to 40 µM
Nc1nccc2cc(CNC(=O)c3cc(Cl)cnc3N3CCN(c4ccncc4)CC3)ccc12 [Example 16.03] | 10 to 40 µM
Nc1nccc2cc(CNC(=O)c3cc(Cl)cnc3Oc3ccc(N4CCCC4=O)cc3)ccc12 [Example 22.01, N-((1-aminoisoquinolin-6-yl)methyl)-5-chloro-2-(4-(2-oxopyrrolidin-1-yl)phenoxy)nicotinamide] | 3 to 10 µM
Cn1cnc2cc(Oc3ncc(Cl)cc3C(=O)NCc3ccc4c(N)nccc4c3)ccc21 [Example 22.02] | 10 to 40 µM
CN(C)c1ccc(Oc2ncc(Cl)cc2C(=O)NCc2ccc3c(N)nccc3c2)cc1 [Example 22.03] | 10 to 40 µM
CN(C(=O)C(C)(C)C)c1ccc(Oc2ncc(Cl)cc2C(=O)NCc2ccc3c(N)nccc3c2)cc1 [Example 22.04] | 10 to 40 µM
Nc1nccc2cc(CNC(=O)c3cc(Cl)cnc3Oc3cccc(N4CCCC4=O)c3)ccc12 [Example 22.05] | 10 to 40 µM
Nc1nccc2cc(CNC(=O)c3cc(Cl)cnc3OCCN3CCCCC3)ccc12 [Example 22.06] | 10 to 40 µM
CN1CCC(COc2ncc(Cl)cc2C(=O)NCc2ccc3c(N)nccc3c2)CC1 [Example 22.07] | 10 to 40 µM
Nc1nccc2cc(CNC(=O)c3cc(Cl)cnc3OCCN3CCCC3)ccc12 [Example 22.08] | 10 to 40 µM
CN(C)CCOc1ncc(Cl)cc1C(=O)NCc1ccc2c(N)nccc2c1 [Example 22.09] | 10 to 40 µM
CCN(CC)CCCOc1ncc(Cl)cc1C(=O)NCc1ccc2c(N)nccc2c1 [Example 22.10] | 10 to 40 µM
Nc1nccc2cc(CNC(=O)c3cc(Cl)cnc3OCCCN3CCCCC3)ccc12 [Example 22.11] | 10 to 40 µM
Nc1nccc2cc(CNC(=O)c3cc(Cl)cnc3Oc3ccc(N4CCNCC4)cc3)ccc12 [Example 22.12] | 3 to 10 µM
Nc1nccc2cc(CNC(=O)c3cc(Cl)cnc3Oc3cccc(N4CCNCC4)c3)ccc12 [Example 22.13] | 10 to 40 µM
CN(Cc1ccccc1)c1ncc(Cl)cc1C(=O)NCc1ccc2c(N)nccc2c1 [Example 28.01, N-((1-aminoisoquinolin-6-yl)methyl)-2-(benzyl(methyl)amino)-5-chloronicotinamide] | 10 to 40 µM
CN(CC1CCN(c2ccncc2)CC1)c1ncc(Cl)cc1C(=O)NCc1ccc2c(N)nccc2c1 [Example 28.02, N-((1-aminoisoquinolin-6-yl)methyl)-5-chloro-2-(methyl((1-(pyridin-4-yl)piperidin-4-yl)methyl)amino)nicotinamide] | 10 to 40 µM

Results, then the compound that gave them:

IC50 | Compound
10 to 40 µM | COc1ccc(Nc2ncc(C(=O)NCc3ccc4c(N)nccc4c3)cc2Cl)cc1 [Example 11.25]
10 to 40 µM | Nc1nccc2cc(CNC(=O)c3cnc(Oc4ccc(Cl)cc4)c(Cl)c3)ccc12 [Example 13.01]
10 to 40 µM | COc1ccc(Oc2ncc(C(=O)NCc3ccc4c(N)nccc4c3)cc2Cl)cc1 [Example 13.02]
10 to 40 µM | Nc1nccc2cc(CNC(=O)c3cnc(Oc4cccc(N5CCOCC5)c4)c(Cl)c3)ccc12 [Example 13.03]
10 to 40 µM | Nc1nccc2cc(CNC(=O)c3cnc(OCc4cccnc4)c(Cl)c3)ccc12 [Example 13.04]
10 to 40 µM | Nc1nccc2cc(CNC(=O)c3cnc(Oc4ccccc4)c(Cl)c3)ccc12 [Example 13.05]
10 to 40 µM | Nc1nccc2cc(CNC(=O)c3cnc(Oc4ccccc4Cl)c(Cl)c3)ccc12 [Example 13.06]
10 to 40 µM | N#Cc1ccc(Oc2ncc(C(=O)NCc3ccc4c(N)nccc4c3)cc2Cl)cc1 [Example 13.07]
10 to 40 µM | N#Cc1cccc(Oc2ncc(C(=O)NCc3ccc4c(N)nccc4c3)cc2Cl)c1 [Example 13.08]
3 to 10 µM | N#Cc1ccccc1Oc1ncc(C(=O)NCc2ccc3c(N)nccc3c2)cc1Cl [Example 13.09, N-((1-aminoisoquinolin-6-yl)methyl)-5-chloro-6-(2-cyanophenoxy)nicotinamide]
10 to 40 µM | CN(C)c1ccc(Oc2ncc(C(=O)NCc3ccc4c(N)nccc4c3)cc2Cl)cc1 [Example 13.10]
10 to 40 µM | COc1cccc(Oc2ncc(C(=O)NCc3ccc4c(N)nccc4c3)cc2Cl)c1 [Example 13.11]
10 to 40 µM | COc1ccccc1Oc1ncc(C(=O)NCc2ccc3c(N)nccc3c2)cc1Cl [Example 13.12]
3 to 10 µM | Cn1cnc2cc(Oc3ncc(C(=O)NCc4ccc5c(N)nccc5c4)cc3Cl)ccc21 [Example 13.13]
10 to 40 µM | Nc1nccc2cc(CNC(=O)c3cnc(Oc4cccc(N5CCCC5=O)c4)c(Cl)c3)ccc12 [Example 13.14]
10 to 40 µM | CS(=O)(=O)c1ccc(Oc2ncc(C(=O)NCc3ccc4c(N)nccc4c3)cc2Cl)cc1 [Example 13.15]
10 to 40 µM | CN1CCC(COc2ncc(C(=O)NCc3ccc4c(N)nccc4c3)cc2Cl)CC1 [Example 13.17]
10 to 40 µM | Nc1nccc2cc(CNC(=O)c3cnc(OCCN4CCCC4)c(Cl)c3)ccc12 [Example 13.18]
10 to 40 µM | CN(C)CCOc1ncc(C(=O)NCc2ccc3c(N)nccc3c2)cc1Cl [Example 13.19]
10 to 40 µM | Nc1nccc2cc(CNC(=O)c3cnc(OCc4ccccn4)c(Cl)c3)ccc12 [Example 13.20]
10 to 40 µM | Nc1nccc2cc(CNC(=O)c3cnc(OCc4ccncc4)c(Cl)c3)ccc12 [Example 13.21]
10 to 40 µM | CCN(CC)CCCOc1ncc(C(=O)NCc2ccc3c(N)nccc3c2)cc1Cl [Example 13.22]
10 to 40 µM | CN(C)CCCOc1ncc(C(=O)NCc2ccc3c(N)nccc3c2)cc1Cl [Example 13.23]
3 to 10 µM | Nc1nccc2cc(CNC(=O)c3cnc(Oc4cccc(N5CCNCC5)c4)c(Cl)c3)ccc12 [Example 13.25]
10 to 40 µM | COc1ccccc1-c1cncc(C(=O)NCc2ccc3c(N)nccc3c2)c1 [Example 19.01, N-((1-aminoisoquinolin-6-yl)methyl)-5-(2-methoxyphenyl)nicotinamide]
10 to 40 µM | Nc1nccc2cc(CNC(=O)c3cncc(Br)c3)ccc12 [Example 19.02, N-((1-aminoisoquinolin-6-yl)methyl)-5-bromonicotinamide]
10 to 40 µM | Nc1nccc2cc(CNC(=O)c3cnc4[nH]ccc4c3)ccc12 [Example 19.03, 1H-Pyrrolo[2,3-b]pyridine-5-carboxylic acid (1-amino-isoquinolin-6-ylmethyl)-amide]
10 to 40 µM | Nc1nccc2cc(CNC(=O)c3cncc(Cl)c3)ccc12 [Example 19.04, N-((1-aminoisoquinolin-6-yl)methyl)-5-chloronicotinamide]
10 to 40 µM | Nc1nccc2cc(CNC(=O)c3cccc(Cl)c3)ccc12 [Example 19.05, N-((1-aminoisoquinolin-6-yl)methyl)-3-chlorobenzamide]
3 to 10 µM | Nc1nccc2cc(CNC(=O)c3cnc(Cl)c(Cl)c3)ccc12 [Example 19.06, N-(1-Amino-isoquinolin-6-ylmethyl)-5,6-dichloro-nicotinamide]

Reference: patent publication US20220298141A1, “ENZYME INHIBITORS” (KALVISTA PHARMACEUTICALS LIMITED, priority 2019, published 2022)
